Test results as given in patent US4278797A, “Intermediates to phenylmorphans and method of preparation thereof” (priority 1980, dated 1981).
Read-outs that look alike come from different tables or passages of the source.

Tests used:
Mouse writhing = assay: mouse writhing test (intraperitoneal acetic acid); format: in vivo, mice; conditions: dose reducing writhing by fifty percent; for ED50: Mus musculus
Text: In another test designed to show analgesic activity, mice are given an intraperitaneal injection of acetic acid which causes the animals to writh. An effective analgesic is one that reduces the writhings. Column 3 of the following table presents the effective sucutaneous and oral doses in mg/kg of a compound of this invention required to reduce the writing in test animals by fifty percent (ED50).

Rat tail jerk = assay: rat-tail jerk assay (light beam or heat source applied to the tail); format: in vivo; conditions: dose causing a two second delay in tail removal compared to control animals receiving no drug; for ED (2 s delay): Rattus norvegicus, sc, subcutaneous, read-out: Rat tail jerk subcutaneous injection ED2 seconds
Method: The phenylmorphan derivatives provided by this invention are useful as analgesics in the treatment of pain in animals suffering from pain and in need of treatment. […] One such test is the rat-tail jerk assay. In this test, a light beam or heat source is applied to the tail of a rat. The pain threshold of the animal is measured by the latency of the rat to remove its tail from the pain source. Column 2 in the following table presents the effective subcutaneous dose in mg/kg of a number of the compounds of this invention which causes a two second delay (ED2 sec) in tail removal compared to the control animals receiving no drug.

[1] = compared with morphine or with 5-(3-hydroxyphenyl)-2-methylmorphan; literature; cited from earlier work
[2] = literature; cited from earlier work
[3] = sc, subcutaneous, read-out: Mouse writhing s.c. ED50
[4] = oral, read-out: Mouse writhing oral ED50

SMILES	ED50 (Mouse writhing; [3])	ED50 (Mouse writhing; [4])	ED (2 s delay) (Rat tail jerk)	other results
COc1cccc(C23CCN(C)C(CC(C)C2)C3)c1 (stereo not drawn) [2,7-dimethyl-5-(3-methoxyphenyl)morphan, 2,7-Dimethyl-5-(3-methoxyphenyl)morphan]	3.5 mg/kg	28.5 mg/kg	10 mg/kg	
CC1CC2CC(c3cccc(O)c3)(C1)CC(C)N2C (stereo not drawn) [2,3,7-Trimethyl-5-(3-hydroxyphenyl)morphan]	0.66 mg/kg	14 mg/kg	0.5 mg/kg	
CC1CC2CC(c3cccc(O)c3)(CCN2C)C1 (stereo not drawn) [2,7-dimethyl-5-(3-hydroxyphenyl)morphan, 2,7-Dimethyl-5-(3-hydroxyphenyl)morphan]	0.72 mg/kg	28.5 mg/kg	0.5 mg/kg	
CN1CCC2(c3cccc(O)c3)CCCC1C2 (racemic) [racemic 5-(3-hydroxyphenyl)-2-methylmorphan, 5-(3-hydroxyphenyl)-2-methylmorphan]				analgesic potency [1]: nearly equivalent to that of morphine
CC1CC2(c3cccc(O)c3)CCCC(C2)N1C (stereo not drawn) [2,3-dimethyl-5-(3-hydroxyphenyl)morphan, 2,3-Dimethyl-5-(3-hydroxyphenyl)morphan]	2 mg/kg	23 mg/kg	2 mg/kg	
COc1cccc(C23CCCC(C2)N(C)CC3)c1 (stereo not drawn) [2-methyl-5-(3-methoxyphenyl)-morphan, 2-Methyl-5-(3-methoxyphenyl)morphan]	9.6 mg/kg	27.5 mg/kg	10 mg/kg	
CN1CCC2(c3cccc(O)c3)CCCC1C2 (stereo not drawn) [2-methyl-5-(3-hydroxyphenyl)-morphan, 2-Methyl-5-(3-hydroxyphenyl)morphan]	1.3 mg/kg	29 mg/kg	1 mg/kg	
COc1cccc(C23CC(C)CC(C2)N(C)C(C)C3)c1 (stereo not drawn) [2,3,7-Trimethyl-5-(3-methoxyphenyl)morphan]	7.8 mg/kg	22 mg/kg	20 mg/kg	
COc1cccc(C23CCCC(C2)N(C)C(C)C3)c1 (stereo not drawn) [2,3-dimethyl-5-(3-methoxyphenyl)morphan, 2,3-Dimethyl-5-(3-methoxyphenyl)morphan]				Mouse writhing oral ED50 (Mouse writhing; oral): 17.0 mg/kg; Mouse writhing s.c. ED50 (Mouse writhing; subcutaneous): 13.0 mg/kg; Rat tail jerk subcutaneous injection ED2 seconds (Rat tail jerk): 15.0 mg/kg
CN1CCC2(c3cccc(O)c3)CCCC1C2 (single isomer, unassigned; (-)) [(-)-isomer of 5-(3-hydroxyphenyl)-2-methylmorphan, (-)-5-(3-hydroxyphenyl)-2-methylmorphan]				analgesic potency [1]: morphine-like potency; physical dependence capacity [2]: no physical dependence capacity
